Experimental data: patent publication US20030068613A1, “Method for studying regeneration in biological material” (priority 2000, published 2003)

Tested on: organotypic cortical co-cultures
Assay: Correlated activity (regeneration of functional connections) in organotypic cortical co-cultures on micro-electrode arrays
Format: cell-based, Wistar rats
Conditions: 50 nM in culture medium from 0 DIV, re-administered with each medium change up to 14 DIV; after 14 days in vitro; n=18; untreated control ca. 60% (n=28)
Method: Organotypic cortical co-cultures (350-425 μm thick from the neocortex) were prepared from three-day-old to seven-day-old Wistar rats of both sexes and were maintained in vitro using the roller tube technique; on this point see Gähwiler, Organotypic Monolayer Cultures of Nervous Tissue, J. NEUROSCIENCE METHODS, 1981, volume 4, pages 329-342. The co-cultures were allowed to grow for up to 35 days either on glass cover plates or on micro-electrode arrays in medium which contained 50% Eagle's basic medium, 25% Hanks-buffered saline solution, 25% horse serum, 33 mM D-glucose and 1 mM L-glutamine. The medium was replaced twice a week, and the co-culture explants were positioned relative to one another with varied orientations and varied distances (0 to 500 μm).
The explants cultured on micro-electrode arrays were recorded at different times for spontaneous electrical activity, at the earliest after 4 DIV (days in vitro) and at the latest 35 DIV in normal culture medium at a temperature of 35° C. Using a multi-channel recording system, the 60 micro-electrodes could be recorded simultaneously, as a result of which it was possible to test correlated activity in the co-cultures. […] The electrodes had impedances of 100 to 300 kΩ (at 1 kHz), a spacing of 500 μm and a diameter of 10 μ. The activity was recorded at 10 to 25 kHz per channel, stored, and analyzed offline in respect of latency. […]

## C=CC[C@@H]1/C=C(\C)C[C@H](C)C[C@H](OC)[C@H]2O[C@@](O)(C(=O)C(=O)N3CCCC[C@H]3C(=O)O[C@H](/C(C)=C/[C@@H]3CC[C@@H](O)[C@H](OC)C3)[C@H](C)[C@@H](O)CC1=O)[C@H](C)C[C@@H]2OC [FK506]
  correlated activity (share of explants showing correlation): ~90%
